In ChEMBL document CHEMBL3228010, “Potential antitumor agents. 29. Quantitative structure-activity relationships for the antileukemic bisquaternary ammonium heterocycles” (J Med Chem, 1979):

Key:
L1210 [1] = test: Antitumor activity against mouse L1210 cells […] in ip dosed C3H X DBA2 F1 hybrid mouse on day 0 and dosed at LD10 level once daily on days 1 to 5 assessed as increase in life span relative to control; type: functional
Mus musculus = test: Toxicity in ip dosed C3H X DBA2 F1 hybrid mouse […] with mouse L1210 cells on day 0 and dosed once daily on days 1 to 5 measured after 50 days; type: organism-based; details: in vivo, 1200 h
L1210 [2] = test: Antitumor activity against mouse L1210 cells […] in ip dosed C3H X DBA2 F1 hybrid mouse on day 0 and dosed once daily on days 1 to 5 assessed as increase in life span relative to control; type: functional
[3] = Lipophilic-hydrophilic balance, Rm of the compound by partition chromatography; type: physicochemical

Row | Structure (SMILES) | log(ILSmax) (L1210 [1]) | LD10 (Mus musculus) | D40 (L1210 [2]) | Rm [3]
1 | CC[n+]1cc(-c2ccc(NC(=O)c3ccc(Nc4cc[n+](CC)c5ccccc45)cc3)cc2)c(N)nc1N.[I-].[I-] | 2.11 | 32 mg/kg | 3.3 mg/kg | 0.45
2 | CCC[n+]1cccc(NC(=O)c2ccc(NC(=O)c3ccc(C(=O)Nc4ccc(C(=O)Nc5ccc[n+](CCC)c5)cc4)c(OC)c3)cc2)c1.Cc1ccc(S(=O)(=O)[O-])cc1.Cc1ccc(S(=O)(=O)[O-])cc1 | 1.6 | 22 mg/kg | 22 mg/kg | 0.78
3 | CC[n+]1cc(-c2ccc(NC(=O)c3ccc(Nc4cc[n+](CC)c5ccc(N)cc45)cc3N)cc2)c(N)nc1N.Cc1ccc(S(=O)(=O)[O-])cc1.Cc1ccc(S(=O)(=O)[O-])cc1 | 2.28 | 100 mg/kg | 8.6 mg/kg | 0.33
4 | CC[n+]1cccc(NC(=O)c2ccc(NC(=O)c3ccc(C(=O)Nc4ccc(C(=O)Nc5ccc[n+](CC)c5)cc4)c(OC)c3)cc2)c1.Cc1ccc(S(=O)(=O)[O-])cc1.Cc1ccc(S(=O)(=O)[O-])cc1 | 1.85 | 20 mg/kg | 18 mg/kg | 0.55
5 | CCCC[n+]1cccc2cc(NC(=O)c3ccc(NC(=O)c4ccc(C(=O)Nc5ccc6c(ccc[n+]6CCCC)c5)cc4)cc3)ccc21.Cc1ccc(S(=O)(=O)[O-])cc1.Cc1ccc(S(=O)(=O)[O-])cc1 | 1.91 | 100 mg/kg | 41 mg/kg | 0.26
6 | CCC[n+]1cccc(-c2ccc(NC(=O)/C=C/c3ccc(C(=O)Nc4ccc(-c5ccc(-c6ccc(-c7ccc[n+](CCC)c7)cc6)cc5)cc4)cc3)cc2)c1.Cc1ccc(S(=O)(=O)[O-])cc1.Cc1ccc(S(=O)(=O)[O-])cc1 | 2.2 | 20 mg/kg | 6.4 mg/kg | 0.02
7 | CC[n+]1ccc(Nc2ccc(NC(=O)c3ccc(Nc4cc[n+](CC)c5ccccc45)cc3)cc2N)cc1.[I-].[I-] | 1.69 | 10 mg/kg | 5.1 mg/kg | 0.56
8 | C[n+]1cccc(NC(=O)c2ccc(NC(=O)c3ccc(C(=O)Nc4ccc(C(=O)Nc5ccc[n+](C)c5)cc4)cc3)cc2)c1.[I-].[I-] | 2.02 | 17 mg/kg | 7.5 mg/kg | -0.12
9 | CCC[n+]1cccc(NC(=O)c2ccc(NC(=O)c3ccc(C(=O)Nc4ccc(C(=O)Nc5ccc[n+](CCC)c5)c(OC)c4)cc3)cc2OC)c1.Cc1ccc(S(=O)(=O)[O-])cc1.Cc1ccc(S(=O)(=O)[O-])cc1 | 1.79 | 37 mg/kg | 22 mg/kg | 0.7
10 | C[n+]1cc(-c2ccc(NC(=O)c3ccc(C(=O)Nc4ccc(-c5c[n+](C)c(N)nc5N)cc4)cc3)cc2)c(N)nc1N.Cc1ccc(S(=O)(=O)[O-])cc1.Cc1ccc(S(=O)(=O)[O-])cc1 | 2.22 | 12 mg/kg | 1.5 mg/kg | -0.42
11 | CCC[n+]1cccc2cc(NC(=O)COc3ccc(C(=O)Nc4ccc5c(ccc[n+]5CCC)c4)cc3)ccc21.Cc1ccc(S(=O)(=O)[O-])cc1.Cc1ccc(S(=O)(=O)[O-])cc1 | 1.59 | 8.3 mg/kg | 6.3 mg/kg | 0.15
12 | CCC[n+]1cccc(-c2ccc(NC(=O)c3ccc(C(=O)Nc4ccc(-c5ccc(-c6ccc(-c7ccc[n+](CCC)c7)cc6)cc5)cc4)cc3)cc2)c1.Cc1ccc(S(=O)(=O)[O-])cc1.Cc1ccc(S(=O)(=O)[O-])cc1 | 2.16 | 59 mg/kg | 4 mg/kg | -0.25
13 | CCC[n+]1cccc(NC(=O)c2ccc(NC(=O)c3ccc(C(=O)Nc4ccc(C(=O)Nc5ccc[n+](CCC)c5)cc4OC)cc3)c(OC)c2)c1.Cc1ccc(S(=O)(=O)[O-])cc1.Cc1ccc(S(=O)(=O)[O-])cc1 | 1.6 | 140 mg/kg | 140 mg/kg | 0.3
14 | CCC[n+]1ccc(-c2ccc(-c3ccc(-c4ccc(NC(=O)c5ccc(C(=O)Nc6ccc(-c7ccc(-c8ccc(-c9cc[n+](CCC)cc9)cc8)cc7)cc6)cc5)cc4)cc3)cc2)cc1.Cc1ccc(S(=O)(=O)[O-])cc1.Cc1ccc(S(=O)(=O)[O-])cc1 | 2.03 | 10 mg/kg | 4.6 mg/kg | 0.46
15 | CCC[n+]1cccc2cc(NC(=O)c3ccc(C(=O)Nc4ccc5c(ccc[n+]5CCC)c4)nc3)ccc21.Cc1ccc(S(=O)(=O)[O-])cc1.Cc1ccc(S(=O)(=O)[O-])cc1 | 1.51 | 16 mg/kg | 14 mg/kg | 0.05
16 | CC[n+]1ccc(Nc2ccc(NC(=O)c3ccc(Nc4cc[n+](CC)c5ccc(N)cc45)cc3N)cc2)cc1.[I-].[I-] | 2.33 | 17 mg/kg | 1.4 mg/kg | 0.37
17 | CCCCC[n+]1cccc2cc(NC(=O)COc3ccc(C(=O)Nc4ccc5c(ccc[n+]5CCCCC)c4)cc3)ccc21.Cc1ccc(S(=O)(=O)[O-])cc1.Cc1ccc(S(=O)(=O)[O-])cc1 | 1.53 | 150 mg/kg | 100 mg/kg | 0.78
18 | CC[n+]1ccc(Nc2ccc(C(=O)Nc3ccc(Nc4cc[n+](CC)c5ccccc45)cc3)cc2)cc1.[Br-].[Br-] | 2.16 | 10 mg/kg | 0.6 mg/kg | 0.45
19 | CC[n+]1ccc(Nc2ccc(NC(=O)CCCCCC(=O)Nc3ccc(Nc4cc[n+](CC)cc4)cc3)cc2)cc1.[O-][Cl+3]([O-])([O-])[O-].[O-][Cl+3]([O-])([O-])[O-] | <1.4 | 20 mg/kg |  | 0.69
20 | CC[n+]1cccc2cc(NC(=O)c3ccc(C(=O)Nc4ccc5c(ccc[n+]5CC)c4)cc3)ccc21.Cc1ccc(S(=O)(=O)[O-])cc1.Cc1ccc(S(=O)(=O)[O-])cc1 | 1.43 | 4 mg/kg |  | 0.03
21 | CCCCCC[n+]1cccc2cc(NC(=O)c3ccc(C(=O)Nc4ccc5c(ccc[n+]5CCCCCC)c4)cc3)ccc21.Cc1ccc(S(=O)(=O)[O-])cc1.Cc1ccc(S(=O)(=O)[O-])cc1 | <1.4 | 27 mg/kg |  | 1.03
22 | CC[n+]1ccccc1NC(=O)c1ccc(NC(=O)c2ccc(C(=O)Nc3ccc(C(=O)Nc4cccc[n+]4CC)cc3)cc2)cc1.Cc1ccc(S(=O)(=O)[O-])cc1.Cc1ccc(S(=O)(=O)[O-])cc1 | <1.4 | 13 mg/kg |  | 0.57
23 | CCC[n+]1cccc(NC(=O)c2ccc(NC(=O)c3ccc(C(=O)Nc4ccc(C(=O)Nc5ccc[n+](CCC)c5)cc4)c(Cl)c3)cc2)c1.Cc1ccc(S(=O)(=O)[O-])cc1.Cc1ccc(S(=O)(=O)[O-])cc1 | <1.4 | 40 mg/kg |  | 0.75
24 | CCOCC[n+]1cccc2cc(NC(=O)c3ccc(C(=O)Nc4ccc5c(ccc[n+]5CCOCC)c4)cc3)ccc21.Cc1ccc(S(=O)(=O)[O-])cc1.Cc1ccc(S(=O)(=O)[O-])cc1 | <1.4 | 20 mg/kg |  | 0.8
25 | CCC[n+]1ccc(Nc2ccc(NC(=O)c3ccc(Nc4cc[n+](CCC)c5ccccc45)cc3)cc2N)cc1.[I-].[I-] | 1.43 | 4.4 mg/kg |  | 0.76
26 | C[n+]1cccc2cc(NC(=O)c3ccc(C(=O)Nc4ccc5c(ccc[n+]5C)c4)nc3)ccc21.Cc1ccc(S(=O)(=O)[O-])cc1.Cc1ccc(S(=O)(=O)[O-])cc1 | <1.4 | 4 mg/kg |  | -0.4
27 | CCC[n+]1ccccc1Nc1ccc(NC(=O)c2ccc(C(=O)Nc3ccc(Nc4cccc[n+]4CCC)cc3)cc2)cc1.Cc1ccc(S(=O)(=O)[O-])cc1.Cc1ccc(S(=O)(=O)[O-])cc1 | <1.4 | 100 mg/kg |  | 0.71
28 | CCC[n+]1ccccc1NC(=O)c1ccc(NC(=O)c2ccc(C(=O)Nc3ccc(C(=O)Nc4cccc[n+]4CCC)cc3)cc2)cc1.Cc1ccc(S(=O)(=O)[O-])cc1.Cc1ccc(S(=O)(=O)[O-])cc1 | <1.4 | 100 mg/kg |  | 0.73
29 | CC[n+]1ccccc1-c1ccc(NC(=O)c2ccc(C(=O)Nc3ccc(-c4cccc[n+]4CC)cc3)cc2)cc1.Cc1ccc(S(=O)(=O)[O-])cc1.Cc1ccc(S(=O)(=O)[O-])cc1 | <1.4 | 10 mg/kg |  | 0.26
